Reference: US11180504B2 (ORCHID PHARMA LTD., priority 2016, dated 2021)
Converted amounts (≈) assume the structure as drawn. Read-outs that look alike come from different tables or passages of the source.

Tests used:
[1] = test system: methicillin-sensitive Staphylococcus aureus; test: MIC by broth micro-dilution (CLSI), methicillin-sensitive S. aureus; assay type: cell-based; details: MSSA S. aureus ATCC29213
[2] = test system: carbapenem sensitive Escherichia coli; test: MIC by broth micro-dilution (CLSI), carbapenem sensitive E. coli; assay type: cell-based
[3] = test system: carbapenemase producing K. pneumoniae; test: MIC by broth micro-dilution (CLSI), carbapenemase producing K. pneumoniae; assay type: cell-based, Klebsiella pneumoniae
[4] = test system: carbapenem sensitive Pseudomonas aeruginosa; test: MIC by broth micro-dilution (CLSI), carbapenem sensitive P. aeruginosa; assay type: cell-based
[5] = Staphylococcus aureus, ATCC 29213 / MSSA, read-out: MIC
[6] = Escherichia coli, ATCC25922, ESBL −ve E. coli ATCC25922, read-out: MIC
[7] = Klebsiella pneumoniae, ATCCBAA1705, KPC-2 K. pneumoniae ATCC BAA-1705, read-out: MIC
[8] = Pseudomonas aeruginosa, ATCC27853, Meropenem susceptible P. aeruginosa ATCC27853, read-out: MIC

Row | Compound | MIC [1, 5] [µg/mL] | MIC [2, 6] [µg/mL] | MIC [3, 7] [µg/mL] | MIC [4, 8] [µg/mL] | MIC [1] [µg/mL] | MIC ([2]; ESBL −ve E. coli ATCC25922) [µg/mL] | MIC ([3]; KPC-2 K. pneumoniae ATCC BAA-1705) [µg/mL] | MIC ([4]; Meropenem susceptible P. aeruginosa ATCC27853) [µg/mL]
1 | C[C@@H](NC(=O)Cn1cnnn1)[C@H]1C(=O)N2C(C(=O)O)=C(S[C@@H]3CN[C@H](C(=O)N4CCC5(CCNCC5)C4)C3)[C@H](C)[C@H]12 [Example 499, (4R,5S,6R)-6-((R)-1-(2-(1H-tetrazol-1-yl)acetamido)ethyl)-3-((3S,5S)-5-(2,8-diazaspiro[4.5]decane-2-carbonyl)pyrrolidin-3-ylthio)-4-methyl-7-oxo-1-azabicyclo[3.2.0]hept-2-ene-2-carboxylic acid] | 2 (≈ 3.4 µM) | 0.25 (≈ 0.425 µM) | 1 (≈ 1.7 µM) | 1 (≈ 1.7 µM) | – | – | – | –
2 | C[C@@H](NC(=O)Cn1cnnn1)[C@H]1C(=O)N2C(C(=O)O)=C(S[C@@H]3CN[C@H](C(=O)N4CC5CC(N)CC5C4)C3)[C@H](C)[C@H]12 (stereo partly drawn) [Example 543, (4R,5S,6R)-6-((R)-1-(2-(1H-tetrazol-1-yl)acetamido)ethyl)-3-((3S,5S)-5-(5-aminooctahydrocyclopenta[c]pyrrole-2-carbonyl)pyrrolidin-3-ylthio)-4-methyl-7-oxo-1-azabicyclo[3.2.0]hept-2-ene-2-carboxylic acid] | 2 (≈ 3.49 µM) | 0.5 (≈ 0.872 µM) | 1 (≈ 1.74 µM) | 2 (≈ 3.49 µM) | – | – | – | –
3 | C[C@@H](NC(=O)Cn1cnnn1)[C@H]1C(=O)N2C(C(=O)O)=C(SC3CN(S(N)(=O)=O)C3)[C@H](C)[C@H]12 [Example 376, (4R,5S,6R)-6-((R)-1-(2-(1H-tetrazol-1-yl)acetamido)ethyl)-4-methyl-7-oxo-3-(1-sulfamoylazetidin-3-ylthio)-1-azabicyclo[3.2.0]hept-2-ene-2-carboxylic acid] | 8 (≈ 16.4 µM) | 0.25 (≈ 0.514 µM) | 16 (≈ 32.9 µM) | > 128 | – | – | – | –
4 | C[C@@H](NC(=O)Cn1cnnn1)[C@H]1C(=O)N2C(C(=O)O)=C(S[C@@H]3CN[C@H](C(=O)N4CCC5NCCCC5C4)C3)[C@H](C)[C@H]12 (single isomer, unassigned) [Example 482] | 4 (≈ 6.81 µM) | 0.25 (≈ 0.425 µM) | 4 (≈ 6.81 µM) | 4 (≈ 6.81 µM) | – | – | – | –
5 | CNCC(=O)N[C@H](C)[C@H]1C(=O)N2C(C(=O)O)=C(S[C@@H]3CN[C@H](CNS(=O)(=O)N4CC[C@H](N)C4)C3)[C@H](C)[C@H]12 [Example 253] | 32 (≈ 57.2 µM) | 16 (≈ 28.6 µM) | 16 (≈ 28.6 µM) | 16 (≈ 28.6 µM) | – | – | – | –
6 | C[C@@H](NC(=O)Cn1cnnn1)[C@H]1C(=O)N2C(C(=O)O)=C(S[C@@H]3CN[C@H](C(=O)N4CCn5c(cnc5N)C4)C3)[C@H](C)[C@H]12 [Example 481, (4R,5S,6R)-6-((R)-1-(2-(1H-tetrazol-1-yl)acetamido)ethyl)-3-((3S,5S)-5-(3-amino-5,6,7,8-tetrahydroimidazo[1,5-a]pyrazine-7-carbonyl)pyrrolidin-3-ylthio)-4-methyl-7-oxo-1-azabicyclo[3.2.0]hept-2-ene-2-carboxylic acid] | 2 (≈ 3.42 µM) | 0.125 (≈ 0.213 µM) | 2 (≈ 3.42 µM) | 2 (≈ 3.42 µM) | – | – | – | –
7 | CCOC(=O)c1nnnn1CC(=O)N[C@H](C)[C@H]1C(=O)N2C(C(=O)O)=C(S[C@@H]3CN[C@H](C(=O)N4CC[C@@H](N)C4)C3)[C@H](C)[C@H]12 [Example 339, (4R,5S,6R)-3-((3S,5S)-5-((R)-3-aminopyrrolidine-1-carbonyl)pyrrolidin-3-ylthio)-6-((R) - 1-(2-(5-(ethoxycarbonyl) - 1H-tetrazol-1-yl)acetamido)ethyl)-4-methyl-7-oxo-1-azabicyclo[3.2.0]bept-2-ene-2-carboxylic acid] | 8 (≈ 13.2 µM) | 1 (≈ 1.65 µM) | 32 (≈ 52.8 µM) | 32 (≈ 52.8 µM) | – | – | – | –
8 | C[C@@H](NC(=O)Cn1cnnn1)[C@H]1C(=O)N2C(C(=O)O)=C(SC3CN(C(=O)[C@@H]4C[C@H](N)CN4)C3)[C@H](C)[C@H]12 [Example 387] | 8 (≈ 15.4 µM) | 0.25 (≈ 0.481 µM) | 8 (≈ 15.4 µM) | 32 (≈ 61.6 µM) | – | – | – | –
9 | C[C@@H](NC(=O)Cn1cnnn1)[C@H]1C(=O)N2C(C(=O)O)=C(S[C@@H]3CN[C@H](C(=O)N4CCO[C@H](CN)C4)C3)[C@H](C)[C@H]12 [Example 460, (4R,5S,5R)-6-((R)-1-(2-(1H-tetrazol-1-yl)acetamido)ethyl)-3-((3S,5S)-5-((R)-2-(aminomethyl)morpholine-4-carbonyl)pyrrolidin-3-ylthio)-4-methyl-7-oxo-1-azabicyclo[3.2.0]hept-2-ene-2-carboxylic acid] | 4 (≈ 7.1 µM) | 0.5 (≈ 0.887 µM) | 2 (≈ 3.55 µM) | 4 (≈ 7.1 µM) | – | – | – | –

Second part, the molecule after the results:

Row | MIC [1, 5] [µg/mL] | MIC [2, 6] [µg/mL] | MIC [3, 7] [µg/mL] | MIC [4, 8] [µg/mL] | MIC [1] [µg/mL] | MIC ([2]; ESBL −ve E. coli ATCC25922) [µg/mL] | MIC ([3]; KPC-2 K. pneumoniae ATCC BAA-1705) [µg/mL] | MIC ([4]; Meropenem susceptible P. aeruginosa ATCC27853) [µg/mL] | Compound
10 | 2 (≈ 3.32 µM) | 0.25 (≈ 0.415 µM) | 1 (≈ 1.66 µM) | 2 (≈ 3.32 µM) | – | – | – | – | C[C@@H](NC(=O)Cn1cnnn1)[C@H]1C(=O)N2C(C(=O)O)=C(S[C@@H]3CN[C@H](C(=O)N4CC5CCN(C(=N)N)C5C4)C3)[C@H](C)[C@H]12 (single isomer, unassigned) [Example 569]
11 | 16 (≈ 23.6 µM) | 0.5 (≈ 0.737 µM) | 16 (≈ 23.6 µM) | 32 (≈ 47.1 µM) | – | – | – | – | C[C@@H](NC(=O)/C(=N\OC(C)(C)C(=O)O)c1csc(N)n1)[C@H]1C(=O)N2C(C(=O)O)=C(S[C@@H]3CN[C@H](C(=O)N4CC[C@@H](N)C4)C3)[C@H](C)[C@H]12 [Example 514, (4R,5S,6R)-3-((3S,5S)-5-((R)-3-aminopyrrolidine-1-carbonyl)pyrrolidin-3-ylthio)-6-((R)-1-((Z)-2-(2-aminothiazol-4-yl)-2-(2-carboxypropan-2-yloxyimino)acetamido)ethyl)-4-methyl-7-oxo-1-azabicyclo[3.2.0]hept-2-ene-2-carboxylic acid]
12 | 32 (≈ 61.2 µM) | 4 (≈ 7.65 µM) | 16 (≈ 30.6 µM) | 64 (≈ 122 µM) | – | – | – | – | CNCC(=O)N[C@H](C)[C@H]1C(=O)N2C(C(=O)O)=C(S[C@@H]3CN[C@H](CNC(=O)[C@@H]4CCC(N)C4)C3)[C@H](C)[C@H]12 (stereo partly shown) [Example 262]
13 | 8 (≈ 13.9 µM) | 0.5 (≈ 0.867 µM) | 2 (≈ 3.47 µM) | 2 (≈ 3.47 µM) | – | – | – | – | C[C@@H](NC(=O)Cn1cnnn1)[C@H]1C(=O)N2C(C(=O)O)=C(S[C@@H]3CN[C@H](C(=O)N4CC[C@@H](NCCN)C4)C3)[C@H](C)[C@H]12 [Example 401, (4R,5S,6R)-6-((R)-1-(2-(1H-tetrazol-1-yl)acetamido)ethyl)-3-((3S,5S)-5-((R)-3-(2-aminoethylamino)pyrrolidine-1-carbonyl)pyrrolidin-3-ylthio)-4-methyl-7-oxo-1-azabicyclo[3.2.0]hept-2-ene-2-carboxylic acid]
14 | 4 (≈ 8.82 µM) | 1 (≈ 2.2 µM) | 2 (≈ 4.41 µM) | 32 (≈ 70.5 µM) | – | – | – | – | CNCC(=O)N[C@H](C)[C@H]1C(=O)N2C(C(=O)O)=C(SC3CN(C4=NCCS4)C3)[C@H](C)[C@H]12 [Example 256]
15 | – | – | – | – | 2 (≈ 3.67 µM) | 0.25 (≈ 0.458 µM) | 1 (≈ 1.83 µM) | 1 (≈ 1.83 µM) | C[C@@H](NC(=O)Cn1cnnn1)[C@H]1C(=O)N2C(C(=O)O)=C(S[C@@H]3CN[C@H](C(=O)N4CC5CNC5C4)C3)[C@H](C)[C@H]12 (stereo partly drawn) [Example 591, (4R,5S,6R)-6-((R)-1-(2-(1H-tetrazol-1-yl)acetamido)ethyl)-3-((3S,5S)-5-(3,6-diazabicyclo[3.2.0]heptane-3-carbonyl)pyrrolidin-3-ylthio)-4-methyl-7-oxo-1-azabicyclo[3.2.0]hept-2-ene-2-carboxylic acid]
16 | 2 (≈ 3.32 µM) | 0.25 (≈ 0.415 µM) | 1 (≈ 1.66 µM) | 4 (≈ 6.64 µM) | – | – | – | – | C[C@@H](NC(=O)Cn1cnnn1)[C@H]1C(=O)N2C(C(=O)O)=C(S[C@@H]3CN[C@H](C(=O)N4CC5CCN(CCN)C5C4)C3)[C@H](C)[C@H]12 (single isomer, unassigned) [Example 578]
